Reference: patent publication US6872805B2 (Bristol-Myers Squibb Company, priority 2000, dated 2005)

Legend:
NS3/4A BMS strain = NS3/4A BMS strain (Hepatitis C virus genotype 1a, UniProt P27958, C1454S/C1711G); assay: Recombinant HCV NS3/4A protease complex FRET peptide assay, BMS strain; assay type: biochemical, HCV genotype 1a; conditions: enzyme assay
Description: (§1) The purpose of this in vitro assay was to measure the inhibition of HCV NS3 protease complexes, derived from the BMS, H77C or J416S strains, as described below, by compounds of the present invention. This assay provides an indication of how effective compounds of the present invention would be in inhibiting HCV […] proteolytic activity.
(§2) Serum from an HCV-infected patient was obtained from Dr. T. Wright, San Francisco Hospital. An engineered full-length cDNA template of the HCV genome (BMS strain) was constructed from DNA fragments obtained by reverse transcription-PCR (RT-PCR) of serum RNA and using primers selected on the basis of homology between other genotype 1a strains. From the determination of the entire genome sequence, a genotype 1a was assigned to the HCV isolate according to the classification of Simmonds et al. (See P Simmonds, K A Rose, S Graham, S W Chan, F McOmish, B C Dow, E A Follett, P L Yap and H Marsden, J. Clin. Microbiol., 31(6), 1493-1503 (1993)). […] The infectious clones, H77C (1a genotype) and J4L6S (1b genotype) were obtained from R. Purcell (NIH) and the sequences are published in genebank (AAB67036, see Yanagi, M., Purcell, R. H., Emerson, S. U. and Bukh, J. Proc. Natl. Acad. Sci. U.S.A. 94(16),8738-8743 (1997); AF054247, see Yanagi, M., St Claire, M., Shapiro, M., Emerson, S. U., Purcell, R. H. and Bukh, J, Virology 244 (1), 161-172. (1998)). […]

human leukocyte elastase = target: T1, human leukocyte elastase (Homo sapiens, UniProt P08246); assay: Specificity assay, human leukocyte elastase; assay type: biochemical; conditions: read-out: HLE
T1 sequence (P08246 30-267): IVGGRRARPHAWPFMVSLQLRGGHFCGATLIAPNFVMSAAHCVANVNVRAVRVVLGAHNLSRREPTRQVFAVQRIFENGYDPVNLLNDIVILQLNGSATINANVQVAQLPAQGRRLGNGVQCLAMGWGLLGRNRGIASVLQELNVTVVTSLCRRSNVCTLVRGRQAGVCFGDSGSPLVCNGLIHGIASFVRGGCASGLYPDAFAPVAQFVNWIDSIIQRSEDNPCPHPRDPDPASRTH
Procedure: (§3) The specificities of compounds of the present invention were determined against a variety of serine proteases: human leukocyte elastase, porcine pancreatic elastase and bovine pancreatic α-chymotrypsin and one cysteine protease: human liver cathepsin B. In all cases a 96-well plate format protocol using calorimetric […] (pNA) substrate specific for each enzyme was used as described previously (Patent WO 00/09543) with some modifications.
(§4) Each assay included a 1 h enzyme-inhibitor pre-incubation at RT followed by addition of substrate and hydrolysis to ˜30% conversion as measured on a Spectramax Pro microplate reader. Compound concentrations varied from 100 to 0.4 μM depending on their potency.
(§5) The final conditions and protocol for each assay was as reported previously (Patent WO 00/09543) with the inclusion of an additional assay: • 50 mM Tris-HCl pH 8, 0.5M Na2SO4, 50 mM NaCl, 0.1 mM EDTA, 3% DMSO, 0.01% Tween-20 with 133 μM succ-AAA-PNA and 20 nM Elastase
(§6) The percentage of inhibition was calculated using the formula: [1−((UVinh−UVblank)/(UVctl−UVblank))]×100

NS3/4A J4L6S strain = target: T2, NS3/4A J4L6S strain (Hepatitis C virus genotype 1b, UniProt O92972, C1454S/C1711G); assay: Recombinant HCV NS3/4A protease complex FRET peptide assay, J4L6S strain; assay type: biochemical, HCV genotype 1b
T2 construct: DNA encoding the recombinant HCV NS3/4A protease complex (amino acid 1027 to 1711) for these strains; inferred from pET21b vector and Ni-NTA purification; made in house; host or cells: E. coli BL21 (DE3)
T2 sequence (O92972 1027-1711 C1454S/C1711G): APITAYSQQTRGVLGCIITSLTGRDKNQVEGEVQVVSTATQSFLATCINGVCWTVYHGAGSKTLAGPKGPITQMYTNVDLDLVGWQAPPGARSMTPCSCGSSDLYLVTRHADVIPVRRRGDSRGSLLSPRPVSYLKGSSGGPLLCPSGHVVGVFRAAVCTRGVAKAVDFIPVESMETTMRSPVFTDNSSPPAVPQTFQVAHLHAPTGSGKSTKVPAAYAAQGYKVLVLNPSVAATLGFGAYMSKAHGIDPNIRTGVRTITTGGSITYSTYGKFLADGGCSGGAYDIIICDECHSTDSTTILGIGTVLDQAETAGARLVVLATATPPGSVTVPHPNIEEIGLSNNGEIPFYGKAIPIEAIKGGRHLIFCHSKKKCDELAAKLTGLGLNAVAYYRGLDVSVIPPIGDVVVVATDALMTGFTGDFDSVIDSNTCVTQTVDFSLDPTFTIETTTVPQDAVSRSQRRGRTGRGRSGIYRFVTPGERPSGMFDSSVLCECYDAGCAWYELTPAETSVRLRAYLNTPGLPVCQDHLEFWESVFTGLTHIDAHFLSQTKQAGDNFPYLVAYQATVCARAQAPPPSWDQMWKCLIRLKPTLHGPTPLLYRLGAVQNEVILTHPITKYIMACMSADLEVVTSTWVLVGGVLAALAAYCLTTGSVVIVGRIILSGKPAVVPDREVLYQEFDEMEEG
Description: as §1, §2

human liver cathepsin B = target: T3, human liver cathepsin B (Homo sapiens, UniProt P07858); assay: Specificity assay, human liver cathepsin B; assay type: biochemical
T3 construct: from tissue; host or cells: liver
Procedure: as §3, §4, §5, §6

Chain of NS3/4A BMS strain (P27958 1027-1711, stated change not applied): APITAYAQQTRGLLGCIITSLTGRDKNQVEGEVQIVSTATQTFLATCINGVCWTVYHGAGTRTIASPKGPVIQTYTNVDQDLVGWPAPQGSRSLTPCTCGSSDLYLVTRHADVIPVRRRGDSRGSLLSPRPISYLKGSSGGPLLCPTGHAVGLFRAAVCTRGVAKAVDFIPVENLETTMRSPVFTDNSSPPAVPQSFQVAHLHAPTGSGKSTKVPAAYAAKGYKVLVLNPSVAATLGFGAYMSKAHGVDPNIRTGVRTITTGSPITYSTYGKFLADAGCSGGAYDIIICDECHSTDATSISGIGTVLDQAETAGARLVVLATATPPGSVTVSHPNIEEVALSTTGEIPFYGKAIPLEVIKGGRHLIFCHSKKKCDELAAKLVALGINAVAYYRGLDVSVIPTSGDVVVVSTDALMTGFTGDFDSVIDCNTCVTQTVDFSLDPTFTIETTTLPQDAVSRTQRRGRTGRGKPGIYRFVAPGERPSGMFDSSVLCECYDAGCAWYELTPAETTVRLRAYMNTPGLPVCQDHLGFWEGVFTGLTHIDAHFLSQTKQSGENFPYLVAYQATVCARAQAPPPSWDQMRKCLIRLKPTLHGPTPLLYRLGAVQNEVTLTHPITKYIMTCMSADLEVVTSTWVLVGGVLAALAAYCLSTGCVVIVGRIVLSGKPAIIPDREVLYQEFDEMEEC
Chain of NS3/4A BMS strain (P27958 1027-1711, stated change not applied): as above

SMILES: C=CC1C[C@]1(NC(=O)[C@@H]1C[C@@H](Oc2cc(-c3ccccc3)nc3cc(OC)ccc23)CN1C(=O)C(NC(=O)OC(C)(C)C)C(C)(C)C)C(=O)NS(=O)(=O)c1ccc(NC(C)=O)cc1 (stereo partly shown) [Compound 58]
- IC50 (NS3/4A BMS strain): 0.017 µM
- IC50 (human leukocyte elastase): 35 µM
- IC50 (NS3/4A J4L6S strain): 0.008 µM
- IC50 (human liver cathepsin B): > 100 µM
